Results reported in publication PMC8659164, “Effect of S–Se Bioisosteric Exchange on Affinity and Intrinsic Efficacy of Novel N-acylhydrazone Derivatives at the Adenosine A2A Receptor” (Molecules, 2021).

Biological target: T1, adenosine A2A receptor (A2AR) (Rattus norvegicus, UniProt P30543)
T1 construct: gene Adora2a; native full-length receptor in striatum membrane preparation of adult male Wistar rats
Assay: [3H]-ZM241385 competition, rat striatum membranes
Type: binding
Conditions: 50 mM MgCl2 (medium I), 0.5 nM [3H]-ZM241385, pH 7.4, 25 °C, 60 min; parentheses = 95% CI
Excerpt: [3H]-ZM241385 competition, rat striatum membranes on adenosine A2A receptor (A2AR)

T1 sequence (P30543 whole entry): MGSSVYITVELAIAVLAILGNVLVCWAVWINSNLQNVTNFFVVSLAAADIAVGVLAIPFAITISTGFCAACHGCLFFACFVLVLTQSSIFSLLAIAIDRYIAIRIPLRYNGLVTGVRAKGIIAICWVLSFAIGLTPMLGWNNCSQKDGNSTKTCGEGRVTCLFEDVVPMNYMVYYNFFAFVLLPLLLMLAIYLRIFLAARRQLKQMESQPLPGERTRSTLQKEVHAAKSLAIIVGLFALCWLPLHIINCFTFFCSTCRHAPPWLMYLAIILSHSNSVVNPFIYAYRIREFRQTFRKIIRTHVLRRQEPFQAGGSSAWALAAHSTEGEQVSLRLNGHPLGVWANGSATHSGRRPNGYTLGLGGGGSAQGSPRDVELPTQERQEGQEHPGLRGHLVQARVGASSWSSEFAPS

IC50 [µM] | SMILES
10.8 | COc1cccc(C(=O)N/N=C/c2cccs2)c1 [compound 4, 3-Methoxy-N’-(thiophen-2-yl-methylene)benzohydrazide]
27.1 | COc1cccc(C=NNC(=O)c2cccs2)c1 [compound 13, N’-(3-Methoxybenzylidene)thiophene-2-carbo-hydrazide]
52.9 | CN(/N=C/c1ccc[se]1)C(=O)c1ccc2c(c1)OCO2 [compound 6, N-Methyl-N’-(selenophen-2-yl-methylene) benzo[d][1,3]dioxole-5-carbohydrazide]
22.3 | COc1cccc(C(=O)N(C)/N=C/c2cccs2)c1 [compound 7, 3-Methoxy-N-methyl-N’-(thiophen-2-yl-methylene)benzohydrazide]
10.4 | COc1cccc(C(=O)N/N=C/c2ccc[se]2)c1 [compound 5, 3-Methoxy-N’-(selenophen-2-yl-methylene)benzohydrazide]
38.9 | O=C(N/N=C/c1cccs1)c1ccc2c(c1)OCO2 [compound 1, LASSBio-294]
47.9 | CN(/N=C/c1cccs1)C(=O)c1ccc2c(c1)OCO2 [compound 2, LASSBio-785]
16.6 | COc1cccc(C=NNC(=O)c2ccc[se]2)c1 [compound 14, N’-(3-Methoxybenzylidene)selenophene-2-ca-rbohydrazide]
15.4 | COc1cccc(C(=O)N(C)/N=C/c2ccc[se]2)c1 [compound 8, LASSBio-2199]
20.9 | O=C(N/N=C/c1ccc[se]1)c1ccc2c(c1)OCO2 [compound 3, N’-(Selenophen-2-yl-methylene)benzo[d][1,3] dioxole-5-carbohydrazide]
